Data: PubChem BioAssay AID1963875 (Molecular Pharmacology Branch, DTP, NCI, 2024)

System: KRAS-mutant PDC complex spheroid viability
Assay: Anticancer human tumor 186277-243-T-J2-PDC patient-derived colon adenocarcinoma cell line growth inhibition [KRAS2]
Settings: for IC50: curve of first compound; for viability, T/C: stronger effect = lower value
Summary of the method: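 KRAS-mutant tumor cells were grown as spheroids with HUVEC endothelial cells and human MSCs as stroma. Targeted agents were tested alone and with KRAS pathway inhibitors. Doses started at or near clinical Cmax, or 10 microM, descending half-log.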

[1] = second compound 0.1 µM, first compound 0.0316 µM
[2] = second compound 0.1 µM, first compound 0.1 µM
[3] = second compound 0.1 µM, first compound 0.316 µM
[4] = second compound 0.1 µM, first compound 1 µM
[5] = second compound 0.1 µM, first compound 3.16 µM
[6] = second compound 0.1 µM, first compound 10 µM
[7] = second compound 0.316 µM, first compound 0.0316 µM
[8] = second compound 0.316 µM, first compound 0.1 µM
[9] = second compound 0.316 µM, first compound 0.316 µM
[10] = second compound 0.316 µM, first compound 1 µM
[11] = second compound 0.316 µM, first compound 3.16 µM
[12] = second compound 0.316 µM, first compound 10 µM
[13] = second compound 1 µM, first compound 0.0316 µM
[14] = second compound 1 µM, first compound 0.1 µM
[15] = second compound 1 µM, first compound 0.316 µM
[16] = second compound 1 µM, first compound 1 µM
[17] = second compound 1 µM, first compound 3.16 µM
[18] = second compound 1 µM, first compound 10 µM
[19] = second compound 3.16 µM, first compound 0.0316 µM
[20] = second compound 3.16 µM, first compound 0.1 µM
[21] = second compound 3.16 µM, first compound 0.316 µM
[22] = second compound 3.16 µM, first compound 1 µM
[23] = second compound 3.16 µM, first compound 3.16 µM
[24] = second compound 3.16 µM, first compound 10 µM
[25] = second compound 10 µM, first compound 0.0316 µM
[26] = second compound 10 µM, first compound 0.1 µM
[27] = second compound 10 µM, first compound 0.316 µM
[28] = second compound 10 µM, first compound 1 µM
[29] = second compound 10 µM, first compound 3.16 µM
[30] = second compound 10 µM, first compound 10 µM
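For viability, T/C in this document: viability read after seven days of compound exposure; 100% = DMSO vehicle-treated spheroids so lower means less viable.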

Row | Structure (SMILES) | IC50 (second compound 0.1 µM) [nM] | IC50 (second compound 0.316 µM) [nM] | IC50 (second compound 1 µM) [nM] | IC50 (second compound 3.16 µM) [nM] | viability, T/C [1] [%] | viability, T/C [3] [%] | viability, T/C [4] [%] | viability, T/C [5] [%] | viability, T/C [6] [%] | viability, T/C [7] [%] | viability, T/C [8] [%] | viability, T/C [9] [%] | viability, T/C [10] [%] | viability, T/C [11] [%] | viability, T/C [12] [%] | viability, T/C [13] [%] | viability, T/C [14] [%] | viability, T/C [15] [%] | viability, T/C [16] [%] | viability, T/C [17] [%] | further results
1 | COc1cc2nccc(Oc3ccc(NC(=O)C4(C(=O)Nc5ccc(F)cc5)CC4)cc3)c2cc1OC + C=CC(=O)N1CCN(c2nc(OCC3CCCN3C)nc3c2CCN(c2cccc4cccc(C)c24)C3)CC1CC#N | 1890 | 1720 | 1060 | < 31.6 | 113 | 110 | 97.8 | 11.4 | 10.8 | 109 | 108 | 116 | 85.3 | 10.5 | 11.3 | 107 | 109 | 112 | 52.5 | 3.98 | IC50 (second compound 0.0316 µM): 1880 nM; viability, T/C (second compound 0.0316 µM, first compound 0.0316 µM): 108%; viability, T/C (second compound 0.0316 µM, first compound 0.1 µM): 107%; viability, T/C (second compound 0.0316 µM, first compound 0.316 µM): 114%; viability, T/C (second compound 0.0316 µM, first compound 1 µM): 95.5%; viability, T/C (second compound 0.0316 µM, first compound 3.16 µM): 12.5%; viability, T/C (second compound 0.0316 µM, first compound 10 µM): 12.3%; viability, T/C [2]: 122%; viability, T/C [18]: 0.37%; viability, T/C [19]: 0.41%; viability, T/C [20]: 0.44%; viability, T/C [21]: 0.24%; viability, T/C [22]: 0.21%; viability, T/C [23]: 0.13%; viability, T/C [24]: 0.2%
2 | COc1cc(Nc2ncc3c(n2)-c2ccc(Cl)cc2C(c2c(F)cccc2OC)=NC3)ccc1C(=O)O + CNCc1ccccc1-c1csc(C(C)Nc2nc(C)nc3cc(OC)c(OC)cc23)c1 | < 31.6 | < 31.6 | < 31.6 | < 31.6 | 35.7 | 29.4 | 34.1 | 44.2 | 43.8 | 32.8 | 27.8 | 28.8 | 29.7 | 38.3 | 40.8 | 30.1 | 31.6 | 25.9 | 30.7 | 35 | IC50 (second compound 10 µM): < 31.6 nM; viability, T/C [2]: 32.4%; viability, T/C [18]: 35.9%; viability, T/C [19]: 4.28%; viability, T/C [20]: 5.85%; viability, T/C [21]: 4.27%; viability, T/C [22]: 3.03%; viability, T/C [23]: 0.28%; viability, T/C [24]: 0.7%; viability, T/C [25]: 0.12%; viability, T/C [26]: 0.11%; viability, T/C [27]: 0.12%; viability, T/C [28]: 0.15%; viability, T/C [29]: 0.11%; viability, T/C [30]: 0.19%
3 | COc1cc(Nc2ncc3c(n2)-c2ccc(Cl)cc2C(c2c(F)cccc2OC)=NC3)ccc1C(=O)O + C=CC(=O)N1CCN(c2nc(=O)n(-c3c(C)ccnc3C(C)C)c3nc(-c4c(O)cccc4F)c(F)cc23)C(C)C1 | < 31.6 | < 31.6 | < 31.6 | < 31.6 | 25.1 | 22.8 | 34 | 50.2 | 50.6 | 28.5 | 29.5 | 32.6 | 38.1 | 46.8 | 49.2 | 23.2 | 23.8 | 32.7 | 38.5 | 50.1 | IC50 (second compound 10 µM): < 31.6 nM; viability, T/C [18]: 46.7%; viability, T/C [19]: 29.2%; viability, T/C [20]: 30.8%; viability, T/C [21]: 32.8%; viability, T/C [22]: 36.9%; viability, T/C [23]: 43%; viability, T/C [24]: 35.7%; viability, T/C [25]: 20.7%; viability, T/C [26]: 29.2%; viability, T/C [27]: 21.1%; viability, T/C [28]: 27.9%; viability, T/C [29]: 27.7%; viability, T/C [30]: 20.7%
4 | CC1COCCN1c1cc(-c2ccnn2C)c2ccnc(-c3ccn[nH]3)c2n1 (centres undefined) |  |  |  |  |  |  |  |  |  |  |  |  |  |  |  |  |  |  |  |  | viability, T/C (compound 0.0316 µM): 29.2% [middle of 5 runs]; viability, T/C (compound 0.1 µM): 7.22% [middle of 5 runs]; viability, T/C (compound 0.316 µM): 4.63% [middle of 5 runs]; viability, T/C (compound 1 µM): 3.65% [middle of 5 runs]; viability, T/C (compound 3.16 µM): 4.09% [middle of 5 runs]
